Columns and labels:
[1] = refractive index (other wavelength) (dimensionless); settings: 101.33 kPa, Liquid, Wavelength=632.8 nm, Standard Abbe refractometry
[2] = refractive index (other wavelength) (dimensionless); xn = mol fraction of the nth substance listed; settings: 101.3 kPa, Liquid, Wavelength=632.8 nm, Standard Abbe refractometry

CCCCCCCCCC [decane]
[1]
Settings | refractive index
278.87 K | 1.4169
280.1 K | 1.4163
281.3 K | 1.4158
282.48 K | 1.4153
283.62 K | 1.4148
284.82 K | 1.4142
286.06 K | 1.4137
287.23 K | 1.4132

CCCCCCCCCC [decane] + COC(=O)OC
[2], 287.95 K
Settings | refractive index
x2 = 0.101 | 1.4095
x2 = 0.204 | 1.4062
x2 = 0.3 | 1.403
x2 = 0.401 | 1.3995
x2 = 0.501 | 1.3958
x2 = 0.605 | 1.3917
x2 = 0.686 | 1.388
x2 = 0.8 | 1.3821
x2 = 0.903 | 1.3762

COC(=O)OC [dimethyl carbonate]
[1]
Settings | refractive index
277.34 K | 1.3749
278.7 K | 1.3743
280.06 K | 1.3737
281.54 K | 1.373
282.92 K | 1.3724
284.24 K | 1.3718
285.53 K | 1.3712
286.93 K | 1.3706
299.64 K | 1.3647
300.69 K | 1.3642
301.77 K | 1.3637
302.82 K | 1.3632
303.91 K | 1.3627
304.99 K | 1.3622
306.04 K | 1.3617
307.11 K | 1.3612
308.14 K | 1.3607

COC(=O)OC [dimethyl carbonate] + CCCCCCCCCCCCCC
Settings | refractive index
[2], 308.14 K, x1 = 1 | 1.3632

CCCCCCCCCCCCCC [tetradecane]
[1]
Settings | refractive index
299.64 K | 1.4248
300.67 K | 1.4244
301.68 K | 1.424
302.71 K | 1.4235
303.75 K | 1.4231
304.75 K | 1.4226
305.78 K | 1.4222
306.86 K | 1.4218
307.91 K | 1.4213

CCCCCCCCCCCCCC [tetradecane] + COC(=O)OC
[2], 308.14 K
Settings | refractive index
x2 = 0 | 1.4235
x2 = 0.1 | 1.4179
x2 = 0.201 | 1.4145
x2 = 0.3 | 1.4107
x2 = 0.399 | 1.4067
x2 = 0.5 | 1.4019
x2 = 0.6 | 1.3966
x2 = 0.708 | 1.3898
x2 = 0.801 | 1.3826
x2 = 0.899 | 1.3729

— the NIST ThermoML archive (doi:10.1021/je800787t)
